Patent US7572635B2, “Method for agrobacterium transformation for dihaploid corn plants” (Monsanto Technology LLC, priority 2004, dated 2009)

Legend:
plant tissues = test: Regenerability of plant tissues exposed to colchicine (own experiments); assay type: cell-based; settings: levels of colchicine below levels used for chromosome doubling
Description: The ability to produce dihaploid transformed plants without the use of an added chromosome doubling agent is a huge advantage. Chromosome doubling agents tend to be highly toxic chemicals because they are antimicrotubule agents. Also, when using chromosome doubling agents to produce dihaploids from haploids some tetraploids are formed as well. Also, optimization of the chromosome doubling agent is detrimental to the production of transformants in the transformation process.

R0 plants = test: Comparison of doubling with and without colchicine: ploidy number of R0 plants; assay type: in vivo, corn
Description: Comparison of Doubling with and without Colchicine
This is about a 3-fold increase in the amount of doubling. The doubling from the Agrobacterium-mediated transformation process is about as efficient as a very low level of colchicine (50%), but not as effective as a more typical amount (83%).

Compound: COc1cc2c(c(OC)c1OC)-c1ccc(OC)c(=O)cc1[C@@H](NC(C)=O)CC2 [colchicine]
- regenerability of plant tissues (plant tissues): greatly diminish the regenerability of plant tissues
- % diploid (R0 plants; no transformation + 0.01% colchicine + plant regeneration (very low level of colchicine)): 50%
- % diploid (R0 plants; no transformation + 0.025% colchicine + plant regeneration (more typical amount used for doubling)): 83%
